{"source": "patent US9005641B2", "about": "“Compositions and methods for preventing or reducing resistance of insects to insecticides” (Rothamsted Research Limited, priority 2002, dated 2015)", "key": {"[1]": {"test_system": "pyrethroid resistant second instar H. armigera larvae", "test": "Field trial on cotton, night sprays", "format": "in vivo, Helicoverpa armigera", "details": "one day after treatment; lambdacyhalothrin 15 g a.i./ha, PBO 320 g a.i./ha; strain 20 fold resistant", "procedure": "In the lack of H. armigera pressure on cotton, pyrethroid resistant second instar H. armigera larvae, which were the progeny a field strain originating from Queensland, were placed on cotton plant. The strain was 20 fold resistant to lambdacyhalothrin.\nInsecticides were mixed with water.\nThe trial was conducted on replicated, 1 row×2 m plots. Each plot contained from 13-17 mature cotton plants. There was an unsprayed buffer of two rows between each plot. Just prior to sunset, ten second instar H. armigera larvae were placed onto the terminals of each plant in the test plots and the plots sprayed. H. armigera numbers per plant were assessed one day after treatment. Temperature ranged from 24-26° C. The mean percentage mortality and standard deviation were calculated for each treatment."}, "[2]": {"test_system": "pyrethroid-resistant H. armigera larvae", "test": "Synergism studies: PBO pre-treatment before pyrethroid, larval mortality", "protocol": "These involved a comparison of esterase inhibition (expressed as % of control, ± standard deviation) incurred by H. armigera larvae over time following topical application of 1 μl PBO (1%), and the effect on mortality of pyrethroid-resistant larvae when exposed to increasing PBO (1 μl, 1% PBO/larva) pre-treatment intervals before fenvalerate (1 μl, 0.125% fenvalerate/larva, FIG. 3) and zeta-cypermethrin (1 μl, 0.01% zeta-cypermethrin/larva, FIG. 4) exposure."}}, "data": [{"smiles": "CC1(C)[C@H](C(=O)O[C@H](C#N)c2cccc(Oc3ccccc3)c2)[C@@H]1/C=C(\\Cl)C(F)(F)F", "note": "[lambdacyhalothrin]", "values": [{"measurement": "mortality / control of H. armigera", "setting": "[1]", "value": "~40", "unit": "%"}]}, {"smiles": "CC1(C)C(C=C(Cl)Cl)C1C(=O)OC(C#N)c1cccc(Oc2ccccc2)c1", "note": "(racemic) [zeta-cypermethrin, (S)-cyano(3-phenoxyphenyl)-methyl(±)-cis-trans-3-(2,2,-dichloroethenyl)-2,2-dimethylcyclo-propanecarboxylate]", "values": [{"measurement": "mortality (plateau)", "setting": "[2]; 1 μl 0.01% zeta-cypermethrin/larva, PBO (1 μl, 1%) pre-treatment interval 4-10 hrs", "value": 100, "unit": "%"}]}, {"smiles": "CC(C)C(C(=O)OC(C#N)c1cccc(Oc2ccccc2)c1)c1ccc(Cl)cc1", "note": "(stereo not drawn) [fenvalerate, (R—(R*,S*)-4-chloro-α(1-methylethyl)benzeneacetic acid, cyano (3-phenoxyphenyl)methyl ester)]", "values": [{"measurement": "mortality (plateau)", "setting": "[2]; 1 μl 0.125% fenvalerate/larva, PBO (1 μl, 1%) pre-treatment interval 4-5 hrs", "value": 100, "unit": "%"}]}]}
